Key:
[1] = target: T1, CYP2B6 (Homo sapiens, UniProt P20813); experiment: Direct CYP inhibition in human liver microsomes with marker probe substrates; type: in vitro ADME; details: HLM, CYP2B6 probe substrate
T1 sequence (P20813 1-491): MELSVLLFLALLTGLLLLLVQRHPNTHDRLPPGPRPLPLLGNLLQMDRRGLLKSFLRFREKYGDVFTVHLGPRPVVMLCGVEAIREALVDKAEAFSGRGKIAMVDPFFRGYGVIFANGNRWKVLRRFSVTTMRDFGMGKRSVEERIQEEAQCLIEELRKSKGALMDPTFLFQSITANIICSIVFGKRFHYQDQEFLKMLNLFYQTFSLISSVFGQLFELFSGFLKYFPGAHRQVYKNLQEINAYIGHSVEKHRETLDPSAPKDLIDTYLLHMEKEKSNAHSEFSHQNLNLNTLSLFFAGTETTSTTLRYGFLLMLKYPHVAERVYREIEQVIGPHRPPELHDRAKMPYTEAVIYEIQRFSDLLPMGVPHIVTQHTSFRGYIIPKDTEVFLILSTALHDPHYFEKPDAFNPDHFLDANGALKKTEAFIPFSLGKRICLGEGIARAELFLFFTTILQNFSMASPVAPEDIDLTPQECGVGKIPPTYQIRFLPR
Experimental: (§1) The direct inhibition potential of TBI-166 against P450 was determined using the human marker probe reactions for P450 enzymes in human liver microsomes. Briefly, substrate concentrations in the incubation mixture were selected to be around their Km. Eight different concentrations of TBI-166 (from 0.05 to 10 μM) were incubated in human liver microsomes respectively. Incubations were carried out at 37°C in a shaking water bath. The incubation mixtures contained HLM (0.5 mg/mL), probe substrates in the presence or absence of TBI-166 in PBS (100 mM, containing MgCl2 3 mM, pH 7.4). The reactions were initiated by adding NADPH (1 mM) after preincubated the above mixtures at 37°C for 5 min. Positive controls without TBI-166 were included simultaneously. Stock solutions of the test drugs were prepared in acetonitrile. All measurements were performed in triplicate. […] Protein was removed by centrifugation at 4,000 g for 20 min and analyzed by LC-MS/MS ([Li Z. et al., 2019]).
(§2) Metabolites of probe substrates were separated using a Gemini C18 column (2.1 × 50 mm, i. d, […] particle size; United States). […] The analytes and internal standard were detected by positive ion spray in the multiple-reaction-monitoring modes (MRM).
(§3) IC50 values were calculated using nonlinear regression analysis with GraphPad Prism 7 (GraphPad Software Inc., San Diego, CA). […] All data are expressed as the mean ± SD. […]

[2] = target: T2, CYP2J2 (Homo sapiens, UniProt P51589); experiment: as above; type: in vitro ADME; details: HLM, CYP2J2 probe substrate
T2 sequence (P51589 1-502): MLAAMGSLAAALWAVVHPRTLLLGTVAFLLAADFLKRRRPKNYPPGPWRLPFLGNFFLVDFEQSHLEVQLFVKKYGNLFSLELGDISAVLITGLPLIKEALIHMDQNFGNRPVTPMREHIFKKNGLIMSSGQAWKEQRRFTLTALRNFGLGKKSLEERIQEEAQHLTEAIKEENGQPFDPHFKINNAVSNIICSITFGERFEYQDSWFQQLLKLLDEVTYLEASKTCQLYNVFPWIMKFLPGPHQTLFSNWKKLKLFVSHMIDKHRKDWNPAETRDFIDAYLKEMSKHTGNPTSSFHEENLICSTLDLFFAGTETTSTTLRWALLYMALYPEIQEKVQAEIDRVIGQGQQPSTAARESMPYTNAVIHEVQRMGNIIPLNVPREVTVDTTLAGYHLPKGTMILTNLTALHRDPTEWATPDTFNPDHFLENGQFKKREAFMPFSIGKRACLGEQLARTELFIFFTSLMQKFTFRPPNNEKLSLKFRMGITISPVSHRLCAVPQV
Experimental: as §1, §2, §3

[3] = set-up: method as in Xu et al., 2019; details: ref Xu et al., 2019; cited from earlier work
[4] = Lung and spleen tissue exposure in BALB/c mice
[5] = Steady-state plasma pharmacokinetics of BDQ, M2 and TBI-166 in BALB/c mice; details: for AUC(0-t): Plasma; for t 1/2: after last dose
[6] = target: CYP2C9 (Homo sapiens, UniProt P11712); experiment: Direct CYP inhibition in human liver microsomes with marker probe substrates; details: read-out: Inhibition, IC50; HLM, CYP2C9 probe substrate
CYP2C9, sequence (P11712 whole entry): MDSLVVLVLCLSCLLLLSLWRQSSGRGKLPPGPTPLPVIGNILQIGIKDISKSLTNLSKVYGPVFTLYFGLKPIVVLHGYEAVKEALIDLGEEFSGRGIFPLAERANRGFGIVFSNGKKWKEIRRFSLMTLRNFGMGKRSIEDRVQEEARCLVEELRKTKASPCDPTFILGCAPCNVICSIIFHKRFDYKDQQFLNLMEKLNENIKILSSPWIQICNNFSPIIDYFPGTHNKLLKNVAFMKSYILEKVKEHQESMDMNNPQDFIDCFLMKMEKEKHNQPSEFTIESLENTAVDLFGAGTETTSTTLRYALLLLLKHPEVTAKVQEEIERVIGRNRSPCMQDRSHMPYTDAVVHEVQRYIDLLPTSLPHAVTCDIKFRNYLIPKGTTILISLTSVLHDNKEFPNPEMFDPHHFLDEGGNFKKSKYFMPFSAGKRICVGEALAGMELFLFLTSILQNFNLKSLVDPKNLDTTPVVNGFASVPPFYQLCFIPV

[7] = target: CYP2E1 (Homo sapiens, UniProt P05181); experiment: as above; details: read-out: Inhibition, IC50; HLM, CYP2E1 probe substrate
CYP2E1, sequence (P05181 whole entry): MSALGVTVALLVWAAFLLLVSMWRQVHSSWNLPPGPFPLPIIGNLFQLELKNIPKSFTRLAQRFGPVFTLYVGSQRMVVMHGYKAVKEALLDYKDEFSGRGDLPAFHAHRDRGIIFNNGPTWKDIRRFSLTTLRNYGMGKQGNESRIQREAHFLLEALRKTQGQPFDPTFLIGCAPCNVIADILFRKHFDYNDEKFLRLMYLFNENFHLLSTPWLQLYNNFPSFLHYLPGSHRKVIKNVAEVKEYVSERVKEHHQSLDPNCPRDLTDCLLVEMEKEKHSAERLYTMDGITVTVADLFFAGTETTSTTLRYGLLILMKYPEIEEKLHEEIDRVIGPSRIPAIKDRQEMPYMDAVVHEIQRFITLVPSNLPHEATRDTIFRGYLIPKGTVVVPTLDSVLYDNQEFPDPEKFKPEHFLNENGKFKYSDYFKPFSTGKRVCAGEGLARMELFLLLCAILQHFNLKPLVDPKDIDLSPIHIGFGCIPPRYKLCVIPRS

[8] = plasma, TBI-166 group (TBI-166 alone)

COc1ncccc1Nc1cc2nc3ccccc3n(-c3ccc(OC(F)(F)F)cc3)c-2cc1=NC1CCC(OC)CC1 (stereo not drawn) [TBI-166, Pyrifazimine]
IC50 [1]: 4.35 µM | IC50 [2]: > 50 µM | concentration in liver tissue [3]: 32280 ng/mL | AUC(0-t) ([4]; Lung, BDQ + TBI-166 group): 321.07 ± 52.91 µg·h/g | tissue-to-plasma ratio (Kp) ([4]; Lung, BDQ + TBI-166 group): 5.17 | AUC(0-t) ([4]; Lung, TBI-166 group): 378.66 ± 104.67 µg·h/g | tissue-to-plasma ratio (Kp) ([4]; Lung, TBI-166 group): 5.49 | AUC(0-t) ([4]; Spleen, BDQ + TBI-166 group): 483.54 ± 94.75 µg·h/g | tissue-to-plasma ratio (Kp) ([4]; Spleen, BDQ + TBI-166 group): 7.79 | AUC(0-t) ([4]; Spleen, TBI-166 group): 296.09 ± 27.68 µg·h/g | tissue-to-plasma ratio (Kp) ([4]; Spleen, TBI-166 group): 4.29 | exposure (AUC0-t) with vs without coadministration ([4]; lungs): similar | increase of exposure (AUC0-t) after coadministration of BDQ with TBI-166 ([4]; spleens): 1.5 fold | C max, p.o. dosage ([5]; Cmax observed at human equivalent dose of 20 mg, plasma, mice): 700 ng/mL | AUC(0-t) ([5]; BDQ + TBI-166 group (Table S4)): 62050 ± 2520 ng·h/mL | AUC(0-t) ([5]; TBI-166 group (Table S4)): 68950 ± 4840 ng·h/mL | AUC(0-last) ([5]; plasma, BDQ + TBI-166 group): 62,050 ± 2,519 h·ng/mL | AUC(0-last) as percent of single-drug group ([5]; plasma, BDQ + TBI-166 group): 91% | AUC(0-∞) ([5]; plasma, BDQ + TBI-166 group): 103,720 h·ng/mL | C max ([5]; plasma, BDQ + TBI-166 group): 709.45 ± 71.13 ng/mL | MRT(0-t) ([5]; plasma, BDQ + TBI-166 group): 65.18 h | T max ([5]; plasma, BDQ + TBI-166 group): 1 h | t 1/2 ([5]; plasma, BDQ + TBI-166 group (BDQ 25 mg/kg + TBI-166 20 mg/kg, gavage QD 21 days)): 132.67 h | t 1/2 ([5]; plasma, TBI-166 group (TBI-166 20 mg/kg alone, gavage QD 21 days)): 142.03 h | AUC(0-last) [5, 8]: 68,953 ± 4,843 h·ng/mL | AUC(0-∞) [5, 8]: 119,114 h·ng/mL | C max [5, 8]: 1,043.84 ± 92.53 ng/mL | MRT(0-t) [5, 8]: 66.37 h | T max [5, 8]: 1 h | AUC(0-last) as percent of single-drug group ([5]; plasma, TBI-166 group (reference)): 100% | Cmax ([5]; read-out: C max, p.o. dosage, Cmax observed at human equivalent dose of 20 mg, plasma, mice): 1190 nM | IC50 [6]: 5.45 µM | IC50 [7]: 0.93 µM
